The record followed here is publication PMC7076710, “Synthesis, Identification, and Structure–Activity Relationship Analysis of GATA4 and NKX2-5 Protein–Protein Interaction Modulators” (Journal of Medicinal Chemistry, 2019).

Common to all, as to assay type: cell-based
The target in data set [1] is T1, NKX2-5 transcriptional activity (Mus musculus, UniProt P42582).
T1 construct: expressed in transfected cells; host or cells: COS-1
In words: NKX2-5 luciferase reporter assay (3xNKE reporter, COS-1 cells). The settings on record: COS-1, luciferase reporter activity relative to control; for activity at 3 µM: read-out: NKX.3µM; for activity at 10 µM: read-out: NKX.10µM.

Data set [2] relates to COS-1 cells. Description: MTT assay (cell viability). The conditions noted are these: for MTT.1µM / MTT.3µM / MTT.10µM / MTT.30µM: cell viability. (In general: Tetrazolium dyes change colour on reduction, which living cells bring about.)
In data set [3] the target is T2, GATA4–NKX2-5 transcriptional synergy (Mus musculus, UniProt P42582+Q08369).
T2 construct: expressed in transfected cells; host or cells: COS-1
T2 sequence (Q08369 whole entry): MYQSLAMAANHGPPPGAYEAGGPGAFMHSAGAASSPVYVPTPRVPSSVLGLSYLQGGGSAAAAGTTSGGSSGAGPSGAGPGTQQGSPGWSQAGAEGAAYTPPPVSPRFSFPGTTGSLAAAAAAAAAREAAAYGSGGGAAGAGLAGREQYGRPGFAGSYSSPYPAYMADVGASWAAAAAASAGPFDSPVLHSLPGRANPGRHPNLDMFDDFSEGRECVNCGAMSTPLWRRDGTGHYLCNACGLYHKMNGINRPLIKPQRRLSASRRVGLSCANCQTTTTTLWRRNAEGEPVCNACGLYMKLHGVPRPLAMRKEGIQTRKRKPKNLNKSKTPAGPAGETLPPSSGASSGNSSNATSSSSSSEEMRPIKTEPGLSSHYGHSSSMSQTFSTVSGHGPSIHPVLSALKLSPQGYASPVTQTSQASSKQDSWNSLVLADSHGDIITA
T2 sequence (P42582 whole entry): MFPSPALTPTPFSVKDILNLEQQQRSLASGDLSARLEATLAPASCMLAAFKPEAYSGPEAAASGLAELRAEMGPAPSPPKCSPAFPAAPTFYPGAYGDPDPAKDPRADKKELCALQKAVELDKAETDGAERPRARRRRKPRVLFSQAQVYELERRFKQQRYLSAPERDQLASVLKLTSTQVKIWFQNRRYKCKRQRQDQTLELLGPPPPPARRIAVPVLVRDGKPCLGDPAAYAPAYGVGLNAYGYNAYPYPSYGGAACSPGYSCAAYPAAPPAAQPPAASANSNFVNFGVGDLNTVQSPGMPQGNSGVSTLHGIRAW
Description: GATA4–NKX2-5 transcriptional synergy luciferase reporter assay (3xNKE reporter, COS-1 cells). The conditions noted are these: COS-1, luciferase reporter activity relative to control. In general terms: A reporter such as luciferase makes a cellular process visible.

Data set [4] addresses T3, GATA4 transcriptional activity (Mus musculus, UniProt Q08369).
T3 construct: expressed in transfected cells; host or cells: COS-1
Description: GATA4 luciferase reporter assay (tandem GATA-site reporter, COS-1 cells). The conditions noted are these: COS-1, luciferase reporter activity relative to control.

For data set [5], the system named is COS-1 cells. In words: LDH assay (necrosis).

T1 sequence (P42582 whole entry): as above
T3 sequence (Q08369 whole entry): as the sequence (Q08369 whole entry) above

As for `CCN(CC)c1ccc(NC(=O)c2cnc(SC)n2-c2ccc(F)cc2)cc1` [Compound 47z], in data set [1], the activity at 3 µM was determined as 91.1%. For the same molecule, in data set [2], the MTT.1µM was determined as 102.53, the MTT.3µM is given as 95.99, the MTT.10µM was 96.05 and the MTT.30µM amounted to 93. Besides, in data set [3], the activity at 3 µM turned out to be 67.6%. Further, the activity at 3 µM in data set [4] worked out at 91.4%. For the same molecule, in data set [5], the LDH.1µM came to 0.94, the LDH.3µM is listed as 1.33, the LDH.10µM is -0.3 and the LDH.30µM is reported as -0.25.
`CCN(CC)c1ccc(NC(=O)c2cc(C)oc2-c2ccccc2)cc1` [Compound 54]: the activity at 3 µM in data set [1] was 60.8%. For the same molecule, in data set [2], the MTT.1µM is on record as 97.73, the MTT.3µM came to 83.61, the MTT.10µM is on record as 74.16 and the MTT.30µM is 71.09. In addition, the “toxicity class in the MTT assay” value in data set [2] (24-h exposure, classified at 10 μM) is listed as “most toxic”. Also, in data set [3], the activity at 3 µM amounted to 46% and the activity at 10 µM stood at 35.4%. Further, the activity at 3 µM in data set [4] came to 72.4%. Besides, in data set [5], the LDH.1µM was determined as 1.02, the LDH.3µM is on record as 0.88, the LDH.10µM is given as -0.26 and the LDH.30µM was 3.27.
As to `CCN(c1ccc(NC(=O)c2c(C)noc2-c2ccccc2)cc1)C(C)C` [Compound 63], the activity at 3 µM in data set [1] was 69.7%. Besides, in data set [2], the MTT.1µM is reported as 99.16, the MTT.3µM stood at 82.83, the MTT.10µM was determined as 75.83 and the MTT.30µM came to 61.58. In addition, the activity at 3 µM in data set [3] was 41.6%. The activity at 3 µM in data set [4] was found to be 68%. In data set [5], the LDH.1µM was 0.04, the LDH.3µM is listed as -1.53, the LDH.10µM is -2.08 and the LDH.30µM is given as 0.01.
Take `CC(=O)N(Cc1ccc(N(C)C)cc1)c1c(-c2ccccc2)noc1C` [Compound 64]: in data set [1], the activity at 3 µM came to 62.1% and the activity at 10 µM amounted to 44.1%. In data set [2], this molecule yielded an MTT.1µM of 98.18, an MTT.3µM of 84.51, an MTT.10µM of 77.4 and an MTT.30µM of 65.98. Further, the activity at 3 µM in data set [3] was 40.2%. Further, in data set [4], the activity at 3 µM came out at 59.6%. In data set [5], this molecule yielded an LDH.1µM of 0.55, an LDH.3µM of -0.52, an LDH.10µM of -0.2 and an LDH.30µM of -0.49.
Turning to `CCN(CC)c1ccc(NC(=O)c2c(C)noc2-c2ccccc2)cc1` [Compound 65], the activity at 3 µM in data set [1] came out at 53.5%. In addition, in data set [2], the MTT.1µM worked out at 96.79, the MTT.3µM is 83.46, the MTT.10µM is 81.39 and the MTT.30µM amounted to 84.64. Moreover, the activity at 3 µM in data set [3] came to 51.9%. Moreover, in data set [4], the activity at 3 µM worked out at 90% and the activity at 10 µM was 64.2%. In data set [5], this molecule gave an LDH.1µM of 0.39, an LDH.3µM of -0.82, an LDH.10µM of -1.85 and an LDH.30µM of -0.07.
`CCN(CC)c1ccc(NC(=O)c2c(-c3ccccc3)nnn2CCc2ccccc2)cc1` [Compound 71]: in data set [1], the activity at 3 µM came to 76% and the activity at 10 µM is 33.6%. In data set [2], the MTT.1µM is 103.27, the MTT.3µM was 98.93, the MTT.10µM was 94.48 and the MTT.30µM was found to be 80.74. For the same molecule, in data set [3], the activity at 3 µM was found to be 75.2% and the activity at 10 µM was determined as 33%. Further, in data set [4], the activity at 3 µM was 72.5%. In data set [5], this molecule registered an LDH.1µM of 0.03, an LDH.3µM of -0.62, an LDH.10µM of -0.76 and an LDH.30µM of 1.31.
Take `CC[N+](O)(CC)c1ccc(NC(=O)c2c(-c3ccccc3)noc2C)cc1` [SI4]: in data set [1], the activity at 3 µM is 118% and the activity at 10 µM turned out to be 99.9%. In data set [2], this molecule showed an MTT.1µM of 104.81, an MTT.3µM of 107.68, an MTT.10µM of 104.23 and an MTT.30µM of 95.62. In addition, in data set [3], the activity at 3 µM is 101% and the activity at 10 µM worked out at 93.6%. In data set [4], the activity at 3 µM is 87.2% and the activity at 10 µM stood at 86.9%. In data set [5], this molecule returned an LDH.1µM of 3.36, an LDH.3µM of 1.95, an LDH.10µM of 1 and an LDH.30µM of -1.21.
For `Cc1onc(-c2ccccc2)c1C(=O)Nc1ccc(OCc2ccccc2)cc1` [SI8], in data set [1], the activity at 3 µM was 84.9% and the activity at 10 µM is 72.2%. In data set [2], the MTT.1µM was determined as 105.45, the MTT.3µM turned out to be 102.65, the MTT.10µM is reported as 100.93 and the MTT.30µM worked out at 59.22. Moreover, in data set [3], the activity at 3 µM came out at 86.4% and the activity at 10 µM was 71.9%. Also, in data set [4], the activity at 3 µM turned out to be 104% and the activity at 10 µM was found to be 83.8%. In data set [5], this molecule registered an LDH.1µM of -0.14, an LDH.3µM of 2.05, an LDH.10µM of -0.31 and an LDH.30µM of 1.97.
Take `CCN(CC)c1ccc(/C=N/c2c(-c3ccccc3)noc2C)c(O)c1` [SI44]: in data set [1], the activity at 3 µM was 99.9% and the activity at 10 µM was 53.9%. In data set [2], the MTT.1µM is listed as 105.22, the MTT.3µM is listed as 100.5, the MTT.10µM stood at 90.69 and the MTT.30µM is given as 89.22. In data set [3], the activity at 3 µM was 84.8% and the activity at 10 µM was 53.2%. For the same molecule, in data set [4], the activity at 3 µM is 107% and the activity at 10 µM worked out at 74.1%. In data set [5], this molecule yielded an LDH.1µM of 2.83, an LDH.3µM of 1.4, an LDH.10µM of -0.96 and an LDH.30µM of 0.36.
For the molecule `CCCn1nnc(-c2ccccc2)c1C(=O)Nc1ccc(N(CC)CC)cc1` [SI65], in data set [1], the activity at 3 µM came to 115% and the activity at 10 µM was 91.1%. In addition, in data set [2], the MTT.1µM was 101.13, the MTT.3µM is listed as 112.84, the MTT.10µM is listed as 109.58 and the MTT.30µM is reported as 105.89. In data set [3], the activity at 3 µM turned out to be 104% and the activity at 10 µM is 96.1%. Besides, in data set [4], the activity at 3 µM came out at 113% and the activity at 10 µM came out at 97.4%. Moreover, in data set [5], the LDH.1µM was 2.51, the LDH.3µM is reported as 1.17, the LDH.10µM is 1.55 and the LDH.30µM was determined as 2.48.
As to `CN(C)c1ccc(NCc2c[nH]nc2-c2ccc(F)cc2)cc1` [SI78], in data set [1], the activity at 3 µM was 70.7% and the activity at 10 µM came to 43%. For the same molecule, in data set [2], the MTT.1µM stood at 105.6, the MTT.3µM was found to be 102.53, the MTT.10µM amounted to 103.53 and the MTT.30µM worked out at 103.47. Also, in data set [3], the activity at 3 µM was found to be 67.2% and the activity at 10 µM was found to be 42.2%. In addition, in data set [4], the activity at 3 µM is 83.7% and the activity at 10 µM is 49.1%. Further, in data set [5], the LDH.1µM came out at 0.7, the LDH.3µM is 1, the LDH.10µM is given as -1.06 and the LDH.30µM is listed as -2.54.
